Measurements as given in ChEMBL document CHEMBL1770127, “2-(2-Aminothiazol-4-yl)pyrrolidine-based tartrate diamides as potent, selective and orally bioavailable TACE inhibitors” (Bioorg Med Chem Lett, 2011).

What was measured:
[1] = target: 72 kDa type IV collagenase (Homo sapiens, UniProt P08253); assay: Inhibition of MMP2
[2] = target: Collagenase 3 (Homo sapiens, UniProt P45452); assay: Inhibition of MMP13
[3] = target: T1, Matrilysin (Homo sapiens, UniProt P09237); assay: Inhibition of MMP7
T1 sequence (P09237 whole entry): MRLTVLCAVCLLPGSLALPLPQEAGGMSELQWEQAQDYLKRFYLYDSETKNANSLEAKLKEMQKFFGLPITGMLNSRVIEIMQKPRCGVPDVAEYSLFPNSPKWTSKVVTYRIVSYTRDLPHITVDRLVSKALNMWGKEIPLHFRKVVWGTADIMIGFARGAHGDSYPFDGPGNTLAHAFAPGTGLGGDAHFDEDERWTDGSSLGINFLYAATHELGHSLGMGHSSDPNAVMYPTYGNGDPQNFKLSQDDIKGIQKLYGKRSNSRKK

[4] = target: Stromelysin-1 (Homo sapiens, UniProt P08254); assay: Inhibition of MMP3
Stromelysin-1, sequence (P08254 whole entry, the tested form may be a part): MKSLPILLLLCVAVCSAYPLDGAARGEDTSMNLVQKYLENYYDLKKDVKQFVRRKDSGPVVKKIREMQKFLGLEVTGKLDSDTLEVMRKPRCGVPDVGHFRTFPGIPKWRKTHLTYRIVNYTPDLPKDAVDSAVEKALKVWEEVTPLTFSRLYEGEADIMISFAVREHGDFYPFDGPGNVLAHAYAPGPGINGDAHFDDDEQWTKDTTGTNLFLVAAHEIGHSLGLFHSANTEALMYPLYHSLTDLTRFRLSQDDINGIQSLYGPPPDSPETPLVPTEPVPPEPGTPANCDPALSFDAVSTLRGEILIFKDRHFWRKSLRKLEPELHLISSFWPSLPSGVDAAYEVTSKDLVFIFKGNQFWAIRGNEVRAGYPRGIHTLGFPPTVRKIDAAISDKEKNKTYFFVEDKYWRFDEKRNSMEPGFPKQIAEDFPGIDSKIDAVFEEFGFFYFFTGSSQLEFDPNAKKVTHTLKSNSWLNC

[5] = target: T2, Disintegrin and metalloproteinase domain-containing protein 17 (Homo sapiens, UniProt P78536); assay: Inhibition of TACE
T2 sequence (P78536 whole entry, the tested form may be a part): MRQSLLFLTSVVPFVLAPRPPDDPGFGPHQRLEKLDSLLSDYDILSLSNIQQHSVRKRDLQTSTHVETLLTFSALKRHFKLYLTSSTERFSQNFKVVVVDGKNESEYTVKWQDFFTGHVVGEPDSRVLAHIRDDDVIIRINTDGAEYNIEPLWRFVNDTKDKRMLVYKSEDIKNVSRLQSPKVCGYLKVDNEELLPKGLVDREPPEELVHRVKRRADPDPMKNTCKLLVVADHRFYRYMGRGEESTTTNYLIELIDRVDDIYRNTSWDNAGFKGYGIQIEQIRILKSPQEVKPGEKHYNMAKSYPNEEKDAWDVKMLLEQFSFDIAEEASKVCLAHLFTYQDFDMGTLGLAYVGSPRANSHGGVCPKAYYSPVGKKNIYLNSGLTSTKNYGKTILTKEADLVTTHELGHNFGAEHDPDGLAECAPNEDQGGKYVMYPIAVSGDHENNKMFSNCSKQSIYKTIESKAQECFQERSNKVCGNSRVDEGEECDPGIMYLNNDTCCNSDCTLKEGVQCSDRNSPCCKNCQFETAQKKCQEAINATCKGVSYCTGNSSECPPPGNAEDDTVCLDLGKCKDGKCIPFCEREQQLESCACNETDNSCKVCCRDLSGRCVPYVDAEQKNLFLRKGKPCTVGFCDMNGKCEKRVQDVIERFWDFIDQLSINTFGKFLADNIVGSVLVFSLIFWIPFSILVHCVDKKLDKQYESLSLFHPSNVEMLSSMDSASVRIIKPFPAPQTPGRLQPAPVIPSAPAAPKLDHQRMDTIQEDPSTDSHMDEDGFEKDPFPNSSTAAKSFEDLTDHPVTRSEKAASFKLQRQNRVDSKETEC

[6] = Plasma concentration in Sprague-Dawley rat at 10 mg/kg, po measured after 6 hrs by LC/MS/MS analysis; type: ADME, organism-based; parameters: dose 10 mg/kg, route oral
[7] = target: Matrix metalloproteinase-14 (Homo sapiens, UniProt P50281); assay: Inhibition of MMP14
[8] = target: T3, Disintegrin and metalloproteinase domain-containing protein 10 (Homo sapiens, UniProt O14672); assay: Inhibition of ADAM10
T3 sequence (O14672 whole entry): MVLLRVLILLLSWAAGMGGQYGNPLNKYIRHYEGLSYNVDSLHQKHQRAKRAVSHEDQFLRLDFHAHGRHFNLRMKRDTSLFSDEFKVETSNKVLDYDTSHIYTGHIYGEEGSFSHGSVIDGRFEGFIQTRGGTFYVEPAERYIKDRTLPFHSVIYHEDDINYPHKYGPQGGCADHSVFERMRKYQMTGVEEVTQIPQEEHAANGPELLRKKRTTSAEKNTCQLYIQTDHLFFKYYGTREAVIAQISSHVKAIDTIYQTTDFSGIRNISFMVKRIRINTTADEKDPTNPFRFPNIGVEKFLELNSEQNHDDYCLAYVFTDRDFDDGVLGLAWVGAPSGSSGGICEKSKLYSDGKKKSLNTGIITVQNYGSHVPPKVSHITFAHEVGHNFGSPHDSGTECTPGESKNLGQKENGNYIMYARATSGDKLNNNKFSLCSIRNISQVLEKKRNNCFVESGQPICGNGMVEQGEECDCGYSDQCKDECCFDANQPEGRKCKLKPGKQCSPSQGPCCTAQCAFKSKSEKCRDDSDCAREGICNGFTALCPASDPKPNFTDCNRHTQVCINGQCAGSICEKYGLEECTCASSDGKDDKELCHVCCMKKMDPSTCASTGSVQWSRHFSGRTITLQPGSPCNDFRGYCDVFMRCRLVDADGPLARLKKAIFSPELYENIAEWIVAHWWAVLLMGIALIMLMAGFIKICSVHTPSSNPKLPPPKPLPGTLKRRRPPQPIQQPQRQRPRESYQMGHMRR

[9] = AUC in Sprague-Dawley rat at 10 mg/kg, po measured within 6 hrs after post-dosing by LC/MS/MS analysis; type: ADME, organism-based; parameters: time < 6 hr, dose 10 mg/kg, route oral; conditions: plasma
[10] = target: Matrix metalloproteinase-9 (Homo sapiens, UniProt P14780); assay: Inhibition of MMP9
Matrix metalloproteinase-9, sequence (P14780 whole entry, the tested form may be a part): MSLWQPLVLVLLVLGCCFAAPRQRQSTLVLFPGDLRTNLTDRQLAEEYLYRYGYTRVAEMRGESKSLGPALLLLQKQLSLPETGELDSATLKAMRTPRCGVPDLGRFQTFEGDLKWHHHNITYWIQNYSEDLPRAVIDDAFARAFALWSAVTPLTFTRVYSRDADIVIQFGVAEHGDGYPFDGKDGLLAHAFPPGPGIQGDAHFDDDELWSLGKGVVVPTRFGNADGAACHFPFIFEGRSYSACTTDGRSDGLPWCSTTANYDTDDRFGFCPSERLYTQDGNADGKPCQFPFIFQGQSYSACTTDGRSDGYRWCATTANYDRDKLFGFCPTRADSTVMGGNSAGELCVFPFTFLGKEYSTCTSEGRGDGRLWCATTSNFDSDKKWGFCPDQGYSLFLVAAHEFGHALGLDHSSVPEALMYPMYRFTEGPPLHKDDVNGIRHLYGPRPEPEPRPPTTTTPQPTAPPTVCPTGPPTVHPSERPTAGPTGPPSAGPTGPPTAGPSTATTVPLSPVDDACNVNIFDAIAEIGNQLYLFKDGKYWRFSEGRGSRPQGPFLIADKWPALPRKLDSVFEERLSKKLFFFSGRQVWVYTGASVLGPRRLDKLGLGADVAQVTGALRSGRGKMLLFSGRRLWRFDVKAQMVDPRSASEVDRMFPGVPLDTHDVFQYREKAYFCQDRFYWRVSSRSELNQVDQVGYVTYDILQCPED

[11] = target: T2, Disintegrin and metalloproteinase domain-containing protein 17; assay: Inhibition of TACE by cell based assay
[12] = target: T4, Interstitial collagenase (Homo sapiens, UniProt P03956); assay: Inhibition of MMP1
T4 sequence (P03956 whole entry): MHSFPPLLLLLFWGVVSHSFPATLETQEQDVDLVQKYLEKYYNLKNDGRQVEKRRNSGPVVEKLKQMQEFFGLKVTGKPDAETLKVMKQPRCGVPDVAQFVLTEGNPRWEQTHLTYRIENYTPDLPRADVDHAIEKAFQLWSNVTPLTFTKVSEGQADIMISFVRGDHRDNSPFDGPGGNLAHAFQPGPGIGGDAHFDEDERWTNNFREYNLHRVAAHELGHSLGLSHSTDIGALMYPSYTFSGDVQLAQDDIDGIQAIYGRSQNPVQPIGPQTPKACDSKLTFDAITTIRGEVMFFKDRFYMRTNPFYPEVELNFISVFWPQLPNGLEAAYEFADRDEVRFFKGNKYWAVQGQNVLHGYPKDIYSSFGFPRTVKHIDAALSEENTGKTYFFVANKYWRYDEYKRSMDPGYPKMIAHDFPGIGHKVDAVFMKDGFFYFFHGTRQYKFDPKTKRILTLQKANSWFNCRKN

72 kDa type IV collagenase, sequence (P08253 whole entry): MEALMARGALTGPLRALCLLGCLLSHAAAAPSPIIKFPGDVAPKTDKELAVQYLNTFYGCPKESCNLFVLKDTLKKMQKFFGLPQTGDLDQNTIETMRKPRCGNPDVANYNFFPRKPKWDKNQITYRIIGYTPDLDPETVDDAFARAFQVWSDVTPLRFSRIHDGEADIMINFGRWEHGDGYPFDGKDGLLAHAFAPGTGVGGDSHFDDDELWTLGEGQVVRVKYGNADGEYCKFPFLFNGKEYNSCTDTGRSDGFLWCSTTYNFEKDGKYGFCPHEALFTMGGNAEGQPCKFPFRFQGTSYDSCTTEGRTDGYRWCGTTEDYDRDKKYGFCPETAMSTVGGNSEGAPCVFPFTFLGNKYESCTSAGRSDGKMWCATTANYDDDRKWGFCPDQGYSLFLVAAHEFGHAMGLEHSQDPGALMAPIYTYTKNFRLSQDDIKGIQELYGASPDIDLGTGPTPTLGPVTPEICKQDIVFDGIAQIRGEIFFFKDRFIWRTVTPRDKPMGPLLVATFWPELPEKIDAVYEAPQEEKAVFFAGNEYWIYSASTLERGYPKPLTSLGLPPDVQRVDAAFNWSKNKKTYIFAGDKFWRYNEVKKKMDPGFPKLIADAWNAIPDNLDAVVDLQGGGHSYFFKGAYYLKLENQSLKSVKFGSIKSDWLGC

Ki [1] | Ki [2] | Ki [3] | Ki [4] | Ki [5] | concentration at 6 h [6] | Ki [7] | Ki [8] | AUC at 6 h [9] | Ki [10] | IC50 [11] | Ki [12] | Compound
20.5 µM | > 40 µM | 18.1 µM | > 40 µM | 5 nM | 17.6 µM | > 40 µM | 1350 nM | 134 µM·h | > 40 µM | 3020 nM | > 40 µM | C[C@@H](NC(=O)[C@H](O)[C@@H](O)C(=O)N1CCC[C@@H]1c1csc(NC2CC2)n1)c1ccc(-n2cccn2)cc1
> 40 µM | 14.1 µM | 13.5 µM | > 40 µM | 1 nM |  | 16.4 µM | 120 nM | 1.13 µM·h | 10.1 µM | 416 nM | > 40 µM | CNc1nc([C@H]2c3ccccc3CN2C(=O)[C@H](O)[C@@H](O)C(=O)N[C@H](C)c2ccc(-n3cccn3)cc2)cs1
